Measured values published in ChEMBL document CHEMBL1150308, “Cytotoxic constituents from Brazilian red propolis and their structure-activity relationship” (Bioorg Med Chem, 2008).

Assays:
Assay type in all cases: functional, cell-based
A549 = assay: Cytotoxicity against human A549 cells after 72 hrs by MTT assay; details: A549, 72 h
HeLa = assay: Cytotoxicity against human HeLa cells after 72 hrs by MTT assay
HT-1080 = assay: Cytotoxicity against human HT1080 cells after 72 hrs by MTT assay; details: HT-1080, 72 h
[1] = Cytotoxicity against mouse B16-BL6 cells after 72 hrs by MTT assay; details: B16-BL6, 72 h
[2] = Cytotoxicity against mouse LLC cells after 72 hrs by MTT assay; details: Lewis lung carcinoma
[3] = Cytotoxicity against mouse colon 26-L5 cells after 72 hrs by MTT assay

| Structure (SMILES) | IC50 (A549) [µM] | IC50 (HeLa) [µM] | IC50 (HT-1080) [µM] | IC50 [1] [µM] | IC50 [2] [µM] | IC50 [3] [µM] |
| --- | --- | --- | --- | --- | --- | --- |
| COc1cc(O)ccc1[C@H]1COc2cc(O)ccc2C1 | > 100 | 77.1 | 75.3 | 33.6 | > 100 | 49.8 |
| O=C1c2ccc(O)cc2O[C@H](c2ccccc2)[C@H]1O | > 100 | > 100 | > 100 | > 100 | > 100 | > 100 |
| O=C(c1ccc(O)cc1O)[C@@H](O)Cc1ccc(O)cc1 | > 100 | > 100 | > 100 | > 100 | > 100 | > 100 |
| C=C[C@@H](c1ccccc1)c1cc(O)c(OC)cc1OC | 73.7 | 60.1 | > 100 | 53.8 | > 100 | 60.3 |
| COc1ccc([C@H]2COc3cc(O)ccc3C2)c(O)c1 | > 100 | 72.6 | > 100 | 57.4 | 92.3 | 67 |
| COc1ccc([C@H]2COc3cc(O)ccc3C2=O)c(O)c1 | > 100 | > 100 | > 100 | > 100 | > 100 | 67 |
| COc1ccc2c(c1O)O[C@@H]1c3ccc(O)cc3OC[C@H]21 | > 100 | 61.2 | > 100 | 47.5 | 57.2 | 68.1 |
| COc1ccc2c(C)c(-c3ccc(O)cc3O)oc2c1 | 42.6 | 36.1 | 38.7 | 44.8 | 34.4 | 27.8 |
| COc1ccc2c(c1)O[C@H]1c3ccc(O)c(O)c3OC[C@@H]21 | > 100 | > 100 | > 100 | > 100 | > 100 | 54.1 |
| COc1cc(O)ccc1C(=O)/C=C/c1ccc(O)cc1 | 62.1 | 67.9 | 51.2 | 56.3 | 69.1 | 12.3 |
| COc1ccc([C@H]2COc3cc(O)ccc3C2=O)c(OC)c1O | > 100 | > 100 | > 100 | > 100 | > 100 | > 100 |
| O=C1c2ccc(O)cc2OC1(O)Cc1ccc(O)cc1 (stereo unspecified) | > 100 | > 100 | > 100 | > 100 | > 100 | 25.9 |
| COc1cc2c(cc1O)O[C@H](c1ccccc1)[C@@H](O)C2=O | > 100 | > 100 | > 100 | > 100 | > 100 | > 100 |
| COc1ccc([C@H]2COc3cc(OC)ccc3C2)c(O)c1 | 46 | 44.3 | 50.1 | 24.1 | 24 | 29.8 |
| CCO[C@@]12COc3cc(O)ccc3[C@@H]1Oc1cc(OC)ccc12 | > 100 | > 100 | > 100 | > 100 | > 100 | > 100 |
| O=C1C[C@@H](c2ccccc2)Oc2cc(O)c(O)c(O)c21 | > 100 | > 100 | > 100 | > 100 | > 100 | 53.4 |
| COc1cc2c(cc1O)O[C@H](c1ccccc1)CC2=O | 8.6 | 5.6 | 7.9 | 6.7 | 9.3 | 5.9 |
| COc1ccc(-c2coc3cc(O)cc(O)c3c2=O)c(O)c1 | > 100 | > 100 | > 100 | > 100 | > 100 | 93.6 |
| COc1ccc([C@H]2COc3cc(O)cc(O)c3C2=O)c(O)c1 | > 100 | > 100 | > 100 | > 100 | > 100 | 71.3 |
| COc1ccc2c(c1)O[C@H]1c3ccc(O)c(OC)c3OC[C@@H]21 | 97.3 | 47.1 | 96.3 | > 100 | 97.6 | 29.4 |
| COc1ccc2c(c1)O[C@@H]1c3ccc(O)cc3OC[C@H]21 | 39.5 | 23.4 | 28.4 | 42.4 | 17.2 | 11.3 |
